Measured values from ChEMBL document CHEMBL4765331, “Amides of pyrrole- and thiophene-fused anthraquinone derivatives: A role of the heterocyclic core in antitumor properties” (Eur J Med Chem, 2020).

Columns and labels:
[1] = Selectivity index, ratio of IC50 for human TERT-RPE1 cells to IC50 for human HCT-116 cells; assay type: toxicity; settings: TERT-RPE1 cells and HCT-116 cells, read-out: Ratio IC50
[2] = Selectivity index, ratio of IC50 for human TERT-RPE1 cells to IC50 for human CAPAN-1 cells
P388 = experiment: Antitumour activity against mouse P388 cells xenografted intraperitoneally in BDF1 mouse assessed as […] T/C ratio at 20 mg/kg, ip administered qd for 5 days (reference value: 100%); assay type: functional; settings: dose 20 mg/kg/day; time 5 day
[3] = Drug uptake in mouse NIH3T3 cells assessed as compound localization in mitochondria at 1 uM measured after 15 mins by Mitotracker Green FM dye based laser scanning microscope; assay type: ADME; settings: nih3t3, 0.25 h
[4] = Drug uptake in human K562i/S9 cells harboring exogenously expressed MDR1/Pgp; assay type: ADME, cell-based
K562 [5] = experiment: Induction of apoptosis in human K562 cells assessed as necrotic cells at 1.6 uM measured after 24 hrs by Annexin V-APC/PI staining based flow cytometry assay (reference value: 3.9%); assay type: functional
CAPAN-1 = experiment: Antiproliferative activity against human CAPAN-1 cells assessed as inhibition of cell proliferation measured after 72 hrs by MTT assay; assay type: functional, cell-based; settings: CAPAN-1, 72 h
[6] = Antiproliferative activity against P-gp-positive/doxorubicin-resistant human K562/4 cells assessed as inhibition of cell proliferation measured after 72 hrs by MTT assay; assay type: functional; settings: K562/4, 72 h
[7] = Drug uptake in mouse NIH3T3 cells assessed as compound localization in nucleus at 1 uM measured after 15 mins by laser scanning microscope; assay type: ADME, subcellular; settings: nih3t3, 0.25 h
Calf thymus DNA [8] = experiment: Binding affinity to calf thymus DNA assessed as dissociation constant by scatchard plot analysis; parameters: species or system Bos taurus
K562 [9] = experiment: Induction of apoptosis in human K562 cells assessed as viable cells at 1.6 uM measured after 48 hrs by Annexin V-APC/PI staining based flow cytometry assay (reference value: 85.9%); assay type: functional; settings: read-out: Activity
[10] = Selectivity index, ratio of IC50 for human TERT-RPE1 cells to IC50 for human HL-60 cells; assay type: toxicity; settings: TERT-RPE1 cells and HL-60 cells, read-out: Ratio IC50
[11] = Drug uptake in mouse NIH3T3 cells assessed as compound localization in cytoplasm at 1 uM measured after 15 mins by laser scanning microscope; assay type: ADME, subcellular; settings: nih3t3, 0.25 h
K562 [12] = experiment: Induction of apoptosis in human K562 cells assessed as viable cells at 1.6 uM measured after 24 hrs by Annexin V-APC/PI staining based flow cytometry assay (reference value: 85.9%); assay type: functional; settings: read-out: Activity
K562 [13] = experiment: Induction of apoptosis in human K562 cells assessed as late apoptotic cells at 1.6 uM measured after 24 hrs by Annexin V-APC/PI staining based flow cytometry assay (reference value: […]); assay type: functional
K562 [14] = experiment: Induction of apoptosis in human K562 cells assessed as late apoptotic cells at 1.6 uM measured after 48 hrs by Annexin V-APC/PI staining based flow cytometry assay (reference value: […]); assay type: functional
Calf thymus DNA [15] = experiment: Binding affinity to calf thymus DNA assessed as binding constant by scatchard plot analysis; settings: Bos taurus
[16] = Drug uptake in P-gp-positive/doxorubicin-resistant human K562/4 cells; assay type: ADME

## Cc1[nH]c2c(O)c3c(c(O)c2c1C(=O)N1CC[C@H](N)C1)C(=O)c1ccccc1C3=O
[1]
  selectivity ratio: 18
[2]
  Ratio IC50: 18
P388
  T/C: 153%
[3]
  Drug uptake: Active
[4]
  Drug uptake: Active
K562 [5]
  Activity: 21%
CAPAN-1
  IC50: 500 nM
[6]
  IC50: 21200 nM
[7]
  Drug uptake: Active
Calf thymus DNA [8]
  Kd: 700 nM
K562 [9]
  viability at 1.6 µM: 56.6%
[10]
  selectivity ratio: 18
[11]
  Drug uptake: Active
K562 [12]
  viability at 1.6 µM: 69.4%
K562 [13]
  Activity: 8.3%
K562 [14]
  Activity: 7.5%
Calf thymus DNA [15]
  Kb: 14 10^5/M
[16]
  Drug uptake: Active
